The values below come from EP0520604A2, “Monoclonal antibody against pentacyclic oleanan-type triterpene and use thereof” (MINOPHAGEN PHARMACEUTICAL COMPANY, priority 1991, dated 1992).

What all share (test): Inhibition ELISA (cross reactivity), solidified GA-BSA conjugate as antigen
Type in all cases: binding, mouse
For orientation: ELISA stands for enzyme-linked immunosorbent assay.

Assay [1] relates to monoclonal antibody produced by a strain GA2-20-1. The settings on record: for 50 % inhibition concentration (IC 50): monoclonal antibody 2-20-1, 50-fold diluted, from inhibition curves; for cross reactivity: monoclonal antibody 2-20-1, values in parenthesis, relative to (GA). On the procedure: (§1) Inhibition ELISA comprises sequentially incubating the solidified GA-BSA conjugate with glycyrrhetic acid or a sample together with the antibody, bonding the enzyme-labeled anti-mouse IgG to the resulting incubation mixture, thereby measuring the enzyme activity. The antibody bonded to the antigen contained in the sample cannot be bonded to the solidified antigen, and therefore, the amount of the enzyme bonded is reduced. By measuring the enzyme activity, glycyrrhetic acid contained in the sample can be measured. The amount of glycyrrhizin can be determined by measuring glycyrrhetic acid generated by the acid hydrolysis of glycyrrhizin.
(§2) According to direct ELISA, the antibody solution is divided into each well; according to inhibition ELISA, glycyrrhetic acid or a sample solution is divided into each well together with the antibody solution. After left to stand at ambient temperature, the wells are washed before the division of an enzyme-labeled anti-mouse IgG solution, and then the wells are left to stand at ambient temperature.
(§3) After washing each well again, a solution of a dye which develops color on enzyme reaction is divided into the washed wells for reaction. After the completion of the reaction, the absorbance of each well at 405 nm is measured with an immunoreader. By comparing the results with the values obtained from known amounts of the antigen, glycyrrhetic acid can be assayed.
(§4) The cross reactivity to the following individual compounds was examined according to inhibition ELISA. • (1) 18α H-Olean-11-oxo-12ene-30-oic acid • (2) Olean-12ene-3,11-dioxo-30-oic acid • (3) Olean-12ene-3α-hydroxy-11-oxo-30-oic- acid • (4) Olean-12ene-11-oxo-3β, 30-diol • (5) Cholic acid • (6) Deoxy cholic acid • (7) Glycyrrhetlc acid (GA) • (8) Glycyrrhizin (GL) These are illustrated as compounds (1), (2), (3), (4), (5), (6), (GA) and (GL).
(§5) One hundred µℓ each of the GA-BSA solution (10 µg/mℓ) was divided in the wells of a 96-well microtiter plate and left to stand overnight at 4° C. After removing the antigen solution, 100 µℓ each of the BSA-PBS was divided and left to stand at 37° C for one hour.
(§6) The 50-fold diluted antibody and each of the compounds were individually adjusted to 10 ng/mℓ, 100 ng/mℓ and 1000 ng/mℓ. Fifty µℓ each of the adjusted solution was divided in each well. After left to stand at ambient temperature for 30 minutes, the wells were washed three times with the PBS containing 0.05 % Tween 20, and washed twice with PBS, followed by the division of the 5000-fold dilution of goat anti-mouse IgG labeled with alkaline phosphatase, and left to stand at room temperature for 30 minutes.
(§7) After each well was washed following the same procedure described above, 100 µℓ each of 1M diethanolamine buffer (pH 9.8) containing p-nitrophenyl phosphate at a concentration of 1 mg/mℓ was divided and reacted at 37° C for 30 minutes. After the completion of the reaction, 2M sodium hydroxide was added. Then, the absorbance at 405 nm of each well was measured with an immunoreader.
(§8) From the inhibition curves obtained, 50 % inhibition concentration (IC 50) of each compound was determined. The antibody generated by the strain GA2-20-1, among the three strains, had the highest specificity.

For assay [2], the system named is monoclonal antibody produced by a strain GA2-20-3. The settings on record: for 50 % inhibition concentration (IC 50): monoclonal antibody 2-20-3, 50-fold diluted, from inhibition curves; for cross reactivity: monoclonal antibody 2-20-3, values in parenthesis, relative to (GA). The protocol: as §1, §2, §3, §4, §5, §6, §7, §8
Assay [3] deals with monoclonal antibody produced by a strain GA2-20-6. The settings on record: for 50 % inhibition concentration (IC 50): monoclonal antibody 2-20-6, 50-fold diluted, from inhibition curves; for cross reactivity: monoclonal antibody 2-20-6, values in parenthesis, relative to (GA). On the procedure: as §1, §2, §3, §4, §5, §6, §7, §8

On to `CC1(C)[C@@H](O)CC[C@]2(C)[C@H]3C(=O)C=C4[C@@H]5C[C@@](C)(CO)CC[C@]5(C)CC[C@@]4(C)[C@]3(C)CC[C@@H]12` [(4), Olean-12ene-11-oxo-3β, 30-diol], for which the “50 % inhibition concentration (IC 50)” value in assay [1] is 0.4372 µg/mL; in assay [2], 0.4767 µg/mL; in assay [3], 0.4254 µg/mL. Besides, the cross reactivity result was “( 3.6) %” in assay [1], “( 6.9) %” in assay [2] and “(10.4) %” in assay [3].
Take `CC1(C)[C@H](O)CC[C@]2(C)[C@H]3C(=O)C=C4[C@@H]5C[C@@](C)(C(=O)O)CC[C@]5(C)CC[C@@]4(C)[C@]3(C)CC[C@@H]12` [(3), Olean-12ene-3α-hydroxy-11-oxo-30-oic-acid]: the “50 % inhibition concentration (IC 50)” value came out at 0.6954 µg/mL in assay [1], 0.6765 µg/mL in assay [2] and 0.7933 µg/mL in assay [3]. In addition, the cross reactivity entry in assay [1] is listed as “( 2.3) %”; in assay [2], “( 4.9) %”; in assay [3] it was “( 5.6) %”.
With `CC1(C)C(=O)CC[C@]2(C)[C@H]3C(=O)C=C4[C@@H]5C[C@@](C)(C(=O)O)CC[C@]5(C)CC[C@@]4(C)[C@]3(C)CC[C@@H]12` [(2), Olean-12ene-3,11-dioxo-30-oic acid], the “50 % inhibition concentration (IC 50)” value in assay [1] is 0.8317 µg/mL; in assay [2], 0.9571 µg/mL; in assay [3] it was >1 µg/mL. Besides, the cross reactivity result in assay [1] was “( 1.9) %”; in assay [2], “( 3.4) %”; in assay [3], “(<1.6) %”.
On to “18α H-Olean-11-oxo-12ene-30-oic acid [compound (1)]”, for which the “50 % inhibition concentration (IC 50)” value was found to be 0.0876 µg/mL in assay [1], 0.0878 µg/mL in assay [2] and 0.0975 µg/mL in assay [3]. Also, the cross reactivity entry in assay [1] is “(18.2) %”; in assay [2] it was “(37.5) %”; in assay [3], “(45.5) %”.
With Glycyrrhetlc acid [(GA)], the results for the “50 % inhibition concentration (IC 50)” value in assay [1], in assay [2] and in assay [3] were 0.0159 µg/mL, 0.0329 µg/mL and 0.0444 µg/mL, respectively.
Consider `C[C@H](CCC(=O)O)[C@H]1CC[C@H]2[C@@H]3[C@H](O)C[C@@H]4C[C@H](O)CC[C@]4(C)[C@H]3C[C@H](O)[C@]12C` [compound (5), Cholic acid], for which the “50 % inhibition concentration (IC 50)” value in assay [1], in assay [2] and in assay [3] was >1 µg/mL each time. The cross reactivity entry in assay [1], in assay [2] and in assay [3] was “(<1.6) %” each time.
On to `CC1(C)[C@@H](O[C@H]2O[C@H](C(=O)O)[C@@H](O)[C@H](O)[C@H]2O[C@@H]2O[C@H](C(=O)O)[C@@H](O)[C@H](O)[C@H]2O)CC[C@]2(C)[C@H]3C(=O)C=C4[C@@H]5C[C@@](C)(C(=O)O)CC[C@]5(C)CC[C@@]4(C)[C@]3(C)CC[C@@H]12` [(GL), Glycyrrhizin], for which the “50 % inhibition concentration (IC 50)” value in assay [1], in assay [2] and in assay [3] was >1 µg/mL each time. For the same molecule, the cross reactivity result in assay [1], in assay [2] and in assay [3] was “(<1.6) %” each time.
